Source: US12371454B2, “Cyclic peptide compound having Kras inhibitory action” (priority 2019, dated 2025)
Starred links: 1 amine or outer side, 2 acyl side, 3 side chain; linkers in the order of their positions; H or OH if unused. Positions of bridges follow the written chain, without caps; N, C: chain ends. Non-standard residues stand in square brackets, D forms with d. Residues, ends and D or L forms follow the SMILES beside them. *: point of attachment. hPhe(3-Cl-4-CF3) = N[C@@H](CCc1ccc(C(F)(F)F)c(Cl)c1)C(=O)O; hPhe(4-CF3) = N[C@@H](CCc1ccc(C(F)(F)F)cc1)C(=O)O; X46 = COc1cncc(C[C@@H](C(=O)[*:2])N(C)[*:1])c1; NMePhe(4-Cl) = CN[C@@H](Cc1ccc(Cl)cc1)C(=O)O; NMePhe(2-CN) = CN[C@@H](Cc1ccccc1C#N)C(=O)O; NMeNle(6-CHF2) = CN[C@@H](CCCCC(F)F)C(=O)O; NMedβ3hAla = C[C@H](CC(=O)[*:2])N(C)[*:1]; Phe(3-Cl) = N[C@@H](Cc1cccc(Cl)c1)C(=O)O; NMeGly(cPent) = CN[C@H](C(=O)O)C1CCCC1; Phe(3-I) = N[C@@H](Cc1cccc(I)c1)C(=O)O; NMeCha = CN[C@@H](CC1CCCCC1)C(=O)O; Azetidine(3,3-F2) = FC1(F)CN(*)C1; NMeChg = CN[C@H](C(=O)O)C1CCCCC1; NMeF = CN[C@@H](Cc1ccccc1)C(=O)O; dNMeF = CN[C@H](Cc1ccccc1)C(=O)O; N(CH2CH2)2CF2 = FC1(F)CCN(*)CC1; NMeβAla = CN(CCC(=O)[*:2])[*:1]; NMeD = CN[C@@H](CC(=O)O)C(=O)O; NMeL = CN[C@@H](CC(C)C)C(=O)O; NMeV = CN[C@H](C(=O)O)C(C)C; d(β3hA) = C[C@@H](N)CC(=O)O; NMeA = CN[C@@H](C)C(=O)O; NMeAib = CNC(C)(C)C(=O)O; Nle = CCCC[C@H](N)C(=O)O; Piperidide = C1CCN(*)CC1; Pyrrolidide = C1CCN(*)C1; dNMeA = CN[C@H](C)C(=O)O; Ac5c = NC1(C(=O)O)CCCC1; Aze = O=C(O)[C@@H]1CCN1; Sar = CNCC(=O)O

Molecular target: T1, Kras and SOS1 (biotin-tagged human Kras loaded with GDP, His-tagged human SOS1) (Homo sapiens, UniProt P01116, G12D)
T1 construct: made in house; host or cells: E. coli (stated for Kras only)
Test: Protein-protein interaction inhibition between Kras and SOS1 (KrasGl2D-SOS PPI) using AlphaScreen
Assay type: binding
Settings: AlphaScreen; biotin-tagged human Kras loaded with GDP, His-tagged human SOS1; read-out: KRAS G12D-SOS PPI IC50
Summary of the method: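 Binding between SOS1 and Kras is detected as bead-proximity luminescence: illuminate Ni-conjugated donors (680 nm), collect 520-620 nm emission from streptavidin-conjugated acceptors; Kras carries biotin and GDP loaded after purification, SOS1 carries a His tag.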

T1 sequence (P01116 1-188 isoform P01116-2 G12D): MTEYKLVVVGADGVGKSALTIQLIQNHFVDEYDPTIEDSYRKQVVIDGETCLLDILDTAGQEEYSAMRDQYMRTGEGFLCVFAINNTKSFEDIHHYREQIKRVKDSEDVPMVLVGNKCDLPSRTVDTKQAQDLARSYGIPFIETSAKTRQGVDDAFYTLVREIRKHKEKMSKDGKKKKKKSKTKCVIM

Structure (SMILES) | IC50 [nM]
CC[C@H](C)[C@@H]1NC(=O)CCN(C)C(=O)[C@@H](Cc2ccccc2)N(C)C(=O)[C@H](C2CCCC2)N(C)C(=O)C2(CCCC2)NC(=O)[C@@H]2CCCN2C(=O)[C@H](CCc2ccc(C(F)(F)F)c(Cl)c2)NC(=O)CN(C)C(=O)[C@H](CC2CCCCC2)N(C)C(=O)CN(C)C(=O)CN(C)C1=O [Compound 753] (cyclo([Ac5c][NMeGly(cPent)][dNMeF][NMeβAla]I[Sar][Sar][NMeCha][Sar][hPhe(3-Cl-4-CF3)]P)) | 35
CC[C@H](C)[C@@H]1NC(=O)[C@H](C)N(C)C(=O)C[C@@H](C(=O)N2CCCC2)NC(=O)[C@H](CC(C)C)N(C)C(=O)[C@H](Cc2ccccc2)N(C)C(=O)[C@H](CC(C)C)NC(=O)[C@H](Cc2cccc(Cl)c2)NC(=O)CN(C)C(=O)[C@H](Cc2ccc(Cl)cc2)N(C)C(=O)CN(C)C(=O)CN(C)C1=O [Compound 758] ([NMeA]I[Sar][Sar][NMePhe(4-Cl)][Sar][Phe(3-Cl)]L[NMeF][NMeL]D-Pyrrolidide; lactam N-11) | 140
CC[C@H](C)[C@@H]1NC(=O)[C@H](CC(C)C)N(C)C(=O)C[C@@H](C(=O)N(C)C)N(C)C(=O)[C@H](C2CCCC2)N(C)C(=O)C2(CCCC2)NC(=O)[C@H](CC(=O)N2CC(F)(F)C2)N(C)C(=O)[C@H](CCc2ccc(C(F)(F)F)c(Cl)c2)NC(=O)CN(C)C(=O)[C@H](CC2CCCCC2)N(C)C(=O)[C@@H]2CCN2C(=O)[C@H](C)N(C)C1=O [Compound 761] ([NMeL]I[NMeA][Aze][NMeCha][Sar][hPhe(3-Cl-4-CF3)][NMeD](Azetidine(3,3-F2))[Ac5c][NMeGly(cPent)][NMeD]-NMe2; lactam N-11) | 0.57
CCCC[C@@H]1NC(=O)C(C)(C)N(C)C(=O)[C@H](CCCC)NC(=O)[C@H](Cc2cccc(I)c2)NC(=O)CN(C)C(=O)[C@H](Cc2ccc(Cl)cc2)N(C)C(=O)CN(C)C(=O)CN(C)C(=O)[C@H]([C@@H](C)CC)NC(=O)[C@H](CC(C)C)N(C)C(=O)C[C@@H](C(=O)N2CCCCC2)N(C)C1=O [Compound 765] ([NMeL]I[Sar][Sar][NMePhe(4-Cl)][Sar][Phe(3-I)][Nle][NMeAib][Nle][NMeD]-Piperidide; lactam N-11) | 50
CC[C@H](C)[C@@H]1NC(=O)[C@H](CC(C)C)N(C)C(=O)C[C@@H](C)NC(=O)[C@H](C(C)C)N(C)C(=O)C2(CCCC2)NC(=O)[C@@H]2CCCN2C(=O)[C@H](CCc2ccc(C(F)(F)F)c(Cl)c2)NC(=O)CN(C)C(=O)[C@H](Cc2ccccc2C#N)N(C)C(=O)CN(C)C(=O)CN(C)C1=O [Compound 767] (cyclo([Ac5c][NMeV][d(β3hA)][NMeL]I[Sar][Sar][NMePhe(2-CN)][Sar][hPhe(3-Cl-4-CF3)]P)) | 24
CC[C@H](C)[C@@H]1NC(=O)[C@H](CC(C)C)N(C)C(=O)C[C@@H](C(=O)N2CCCCC2)N(C)C(=O)[C@H](C2CCCCC2)N(C)C(=O)C2(CCCC2)NC(=O)[C@H](Cc2cncc(OC)c2)N(C)C(=O)[C@H](CCc2ccc(C(F)(F)F)c(Cl)c2)NC(=O)CN(C)C(=O)[C@H](CC2CCCCC2)N(C)C(=O)[C@@H]2CCN2C(=O)CN(C)C1=O [Compound 770] ([NMeL]I[Sar][Aze][NMeCha][Sar][hPhe(3-Cl-4-CF3)][X46][Ac5c][NMeChg][NMeD]-Piperidide; lactam N-11) | 20
CC[C@H](C)[C@@H]1NC(=O)[C@H](C)N(C)C(=O)C[C@@H](C)NC(=O)[C@H](C(C)C)N(C)C(=O)C2(CCCC2)NC(=O)[C@@H]2CCCN2C(=O)[C@H](CCc2ccc(C(F)(F)F)c(Cl)c2)NC(=O)[C@@H](C)N(C)C(=O)[C@H](CC2CCCCC2)N(C)C(=O)CN(C)C(=O)CN(C)C1=O [Compound 773] (cyclo([Ac5c][NMeV][d(β3hA)][NMeA]I[Sar][Sar][NMeCha][dNMeA][hPhe(3-Cl-4-CF3)]P)) | 140
CC[C@H](C)[C@@H]1NC(=O)[C@H](CC(C)C)N(C)C(=O)C[C@@H](C)N(C)C(=O)[C@H](C2CCCC2)N(C)C(=O)C2(CCCC2)NC(=O)[C@H](CC(=O)N2CCC(F)(F)CC2)N(C)C(=O)[C@H](CCc2ccc(C(F)(F)F)c(Cl)c2)NC(=O)CN(C)C(=O)[C@H](CC2CCCCC2)N(C)C(=O)[C@@H]2CCN2C(=O)[C@H](C)N(C)C1=O [Compound 777] (cyclo([Ac5c][NMeGly(cPent)][NMedβ3hAla][NMeL]I[NMeA][Aze][NMeCha][Sar][hPhe(3-Cl-4-CF3)][NMeD](N(CH2CH2)2CF2))) | 330
CC[C@H](C)[C@@H]1NC(=O)[C@H](C)N(C)C(=O)C[C@@H](C(=O)N2CCCC2)NC(=O)[C@H](CC(C)C)N(C)C(=O)[C@H](CCCCC(F)F)N(C)C(=O)[C@H](CC(C)C)NC(=O)[C@H](CCc2ccc(C(F)(F)F)cc2)NC(=O)CN(C)C(=O)[C@H](Cc2ccc(Cl)cc2)N(C)C(=O)CN(C)C(=O)CN(C)C1=O [Compound 779] ([NMeA]I[Sar][Sar][NMePhe(4-Cl)][Sar][hPhe(4-CF3)]L[NMeNle(6-CHF2)][NMeL]D-Pyrrolidide; lactam N-11) | 160
